Our source for the IC50 values is EP0892802B1, “SPIRO(CYCLOPENT(B)INDOLE-PIPERIDINES) AND N-PHENYL-HYDRAZON INTERMEDIATES FOR THEIR PREPARATION, BOTH BEING ACETYLCHOLINESTERASE AND MAO INHIBITORS” (priority 1996, dated 1997).

Usually IC50 stands for the concentration that gives 50% inhibition.

SMILES strings stand for the structures.

In one experiment the target is T1, monoamine oxidase-A (Rattus norvegicus, UniProt P21396).
T1 construct: serves as the tissue source for mitochondrial monoamine oxidase; from tissue; host or cells: rat whole brain minus cerebellum, P2 (crude mitochondrial) pellet
T1 sequence (P21396 1-526): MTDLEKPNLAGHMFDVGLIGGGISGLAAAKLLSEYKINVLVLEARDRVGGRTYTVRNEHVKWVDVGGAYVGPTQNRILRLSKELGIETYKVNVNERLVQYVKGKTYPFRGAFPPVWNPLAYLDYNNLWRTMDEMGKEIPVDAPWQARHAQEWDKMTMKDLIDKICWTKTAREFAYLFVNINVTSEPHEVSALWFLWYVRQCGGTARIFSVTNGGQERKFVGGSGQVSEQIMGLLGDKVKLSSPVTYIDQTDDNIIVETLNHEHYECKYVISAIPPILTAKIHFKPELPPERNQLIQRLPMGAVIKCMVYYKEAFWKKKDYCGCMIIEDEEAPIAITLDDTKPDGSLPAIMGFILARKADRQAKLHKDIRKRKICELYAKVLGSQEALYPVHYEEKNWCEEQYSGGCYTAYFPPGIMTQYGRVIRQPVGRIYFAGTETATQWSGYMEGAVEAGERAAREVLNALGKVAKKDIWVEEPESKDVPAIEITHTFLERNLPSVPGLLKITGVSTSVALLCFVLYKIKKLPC
Description: in vitro inhibition of monoamine oxidase assay (modified Kindt), MAO-A. Format: biochemical, Male Wistar rats. The settings on record: rat whole brain minus cerebellum, mitochondrial P2 pellet; substrate [3H]-5-hydroxytryptamine 200 µM; preincubated 15 minutes, incubated 30 minutes at 37°C; log-probit analysis. As for the experimental part:
(§1) In this assay, a modification of an assay described by M. V. Kindt, et al., Europ.
The following reagents are prepared: • 1. Phosphate buffer (0.5 M), pH 7.4; 134.4 g dibasic sodium phosphate heptahydrate q.s. to 1 liter in distilled water (A) 17.3 g monobasic sodium phosphate q.s. to 250 ml in distilled water (B) Adjust pH of A to 7.4 by slowly adding B (volumes as needed) Dilute 1:10 in distilled water (0.05 M phosphate buffer, pH 7.4) • 2. 0.25 M Sucrose (phosphate buffered): 21.4 g sucrose, q.s. to 250 ml with 0.05 M phosphate buffer • 3. Substrate for monoamine oxidase-A: • a. serotonin creatine sulphate (5-hydroxytryptamine) is obtained from Sigma Chemical Company. A 5 mM stock solution is made up in 0.01 N-hydrochloric acid. The solution is used to dilute the specific activity of the [^3H]-hydroxytryptamine. • b. [^3H]-5-hydroxytryptamine binoxalate (20-30 Ci/mmol) is obtained from New England Nuclear. • c. Add 12 µl of [^3H]-5-hydroxytryptamine to 2 ml of the 5 mM 5-hydroxytryptamine solution. (Final amine concentration in the assay is 200 µM: see below.) • 4. Substrate for monoamine oxidase-B • a. β-phenethylamine is obtained from Sigma Chemical Company. A 5 mM stock solution is made up in 0.01 N-hydrochloric acid. The solution is used to dilute the specific activity of the [^14C]-β-phenethylamine. • b. β-[ethyl-1-^14C]-phenethylamine hydrochloride (40-50 mCi/mmol) is obtained from New England Nuclear. • c. Add 12 µl of [^14C]-β-phenethylamine to 2 ml of the 5 mM β-phenethylamine solution. (Final amine concentration in the assay is 200 µM: see below.) • 5. Equal amounts of monoamine oxidase-A (5-hydroxytryptamine) and monoamine oxidase-B (β-phenethylamine) substrates are combined for simultaneously testing both monoamine oxidase types, i.e., mixed stock solution of 2.5 mM 5-hydroxytryptamine and 2.5 mM β-phenethylamine. 40 µl of this mixed solution gives a 200 µM final concentration of each amine in the assay. […]

The target in the next experiment is T2, monoamine oxidase-B (Rattus norvegicus, UniProt P19643).
T2 construct: serves as the tissue source for mitochondrial monoamine oxidase; from tissue; host or cells: rat whole brain minus cerebellum, P2 (crude mitochondrial) pellet
T2 sequence (P19643 1-520): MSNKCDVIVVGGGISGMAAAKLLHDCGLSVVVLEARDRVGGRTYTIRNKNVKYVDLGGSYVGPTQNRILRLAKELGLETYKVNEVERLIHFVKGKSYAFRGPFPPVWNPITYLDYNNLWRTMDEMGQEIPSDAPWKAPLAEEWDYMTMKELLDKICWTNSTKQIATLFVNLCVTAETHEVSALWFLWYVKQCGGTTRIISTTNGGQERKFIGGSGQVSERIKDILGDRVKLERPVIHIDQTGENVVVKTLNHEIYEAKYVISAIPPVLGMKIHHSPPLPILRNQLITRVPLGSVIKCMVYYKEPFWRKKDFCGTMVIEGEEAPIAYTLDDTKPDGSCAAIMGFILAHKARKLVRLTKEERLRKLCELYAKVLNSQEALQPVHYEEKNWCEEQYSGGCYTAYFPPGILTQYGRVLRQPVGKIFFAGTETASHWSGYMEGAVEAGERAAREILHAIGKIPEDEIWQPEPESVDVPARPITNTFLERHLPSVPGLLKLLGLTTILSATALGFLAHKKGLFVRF
Kind of experiment: in vitro inhibition of monoamine oxidase assay (modified Kindt), MAO-B. The experiment is classed as biochemical, Male Wistar rats. The following applies: rat whole brain minus cerebellum, mitochondrial P2 pellet; substrate [14C]-β-phenethylamine 200 µM; preincubated 15 minutes, incubated 30 minutes at 37°C; log-probit analysis. As for the experimental part:
as §1
The following reagents are prepared: • 1. Phosphate buffer (0.5 M), pH 7.4; 134.4 g dibasic sodium phosphate heptahydrate q.s. to 1 liter in distilled water (A) 17.3 g monobasic sodium phosphate q.s. to 250 ml in distilled water (B) Adjust pH of A to 7.4 by slowly adding B (volumes as needed) Dilute 1:10 in distilled water (0.05 M phosphate buffer, pH 7.4) • 2. 0.25 M Sucrose (phosphate buffered): 21.4 g sucrose, q.s. to 250 ml with 0.05 M phosphate buffer • 3. Substrate for monoamine oxidase-A: • a. serotonin creatine sulphate (5-hydroxytryptamine) is obtained from Sigma Chemical Company. A 5 mM stock solution is made up in 0.01 N-hydrochloric acid. The solution is used to dilute the specific activity of the [^3H]-hydroxytryptamine. • b. [^3H]-5-hydroxytryptamine binoxalate (20-30 Ci/mmol) is obtained from New England Nuclear. • c. Add 12 µl of [^3H]-5-hydroxytryptamine to 2 ml of the 5 mM 5-hydroxytryptamine solution. (Final amine concentration in the assay is 200 µM: see below.) • 4. Substrate for monoamine oxidase-B • a. β-phenethylamine is obtained from Sigma Chemical Company. A 5 mM stock solution is made up in 0.01 N-hydrochloric acid. […]

Another experiment deals with T3, acetylcholinesterase (Rattus norvegicus, UniProt P37136).
T3 construct: corpora striata dissected free, weighted and homogenized in 19 volumes; from tissue; host or cells: rat brain corpora striata, crude homogenate
T3 sequence (P37136 32-614): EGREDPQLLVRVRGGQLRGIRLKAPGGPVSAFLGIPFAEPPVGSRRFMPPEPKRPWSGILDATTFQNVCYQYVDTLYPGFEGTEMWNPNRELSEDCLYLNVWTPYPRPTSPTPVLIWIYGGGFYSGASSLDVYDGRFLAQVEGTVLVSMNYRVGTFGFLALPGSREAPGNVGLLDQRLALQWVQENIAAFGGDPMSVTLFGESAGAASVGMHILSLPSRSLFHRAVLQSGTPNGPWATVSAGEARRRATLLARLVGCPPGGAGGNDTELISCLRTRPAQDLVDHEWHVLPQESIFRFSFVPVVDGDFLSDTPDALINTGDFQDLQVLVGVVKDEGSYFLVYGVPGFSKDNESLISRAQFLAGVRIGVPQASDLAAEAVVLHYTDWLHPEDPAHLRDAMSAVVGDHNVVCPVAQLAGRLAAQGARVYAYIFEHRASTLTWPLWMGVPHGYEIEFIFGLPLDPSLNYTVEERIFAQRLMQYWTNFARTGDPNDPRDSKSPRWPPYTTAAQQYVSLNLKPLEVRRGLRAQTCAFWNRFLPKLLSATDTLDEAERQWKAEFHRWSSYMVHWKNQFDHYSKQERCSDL
Description: biochemical. On the set-up: species or system Male Wistar rats. The settings on record: rat corpora striata homogenate; preincubated 10 minutes at 37°C; acetylthiocholine substrate 5 millimolar final; log-probit analysis; read-out: Inhibition of Acetylcholinesterase Activity IC50.

Description for acetylcholinesterase: 0.05M Phosphate Buffer (pH 7.2) A solution of monobasic sodium phosphate monohydrate (6.85 g) in distilled water (100 ml) is added to a solution of dibasic sodium phosphate heptahydrate (13.4 g) and distilled water (100 ml) until a pH of 7.2 was attained. The solution was diluted 1 to 10 with distilled water. • 2. […] 5,5-Dithiobisnitrobenzoic acid in Buffer The 0.05M Phosphate Buffer (pH 7.2) was added to 5.5-dithiobisnitrobenzoic acid to a total volume of 100 ml, i.e., a quantity sufficient (gs) to 100 ml. • 4. Stock Solution of Drug A 2 millimolar stock solution of the test drug is prepared in a quantity sufficient of either acetic acid or dimethyl sulfoxide to volume with 5,5-dithiobisnitrobenzoic acid in Buffer. […]
Male Wistar rats are decapitated, brains rapidly removed, corpora striata dissected free, weighted and homogenized in 19 volumes (approximately 7 mg protein/ml) of 0.05M Phosphate Buffer (pH 7.2) using a Potter-Elvejhem homogenizer. […] Enzyme activity is measured with a Beckman DU-50 spectrophotometer with the following software and instrument settings: • 1. […]
Blank values are determined for each run to control for non-enzymatic hydrolysis of substrate and these values are automatically subtracted by the Kindata program available on kinetics soft-pac module. This program also calculates the rate of absorbance change for each cuvette. […]

As to `COc1cccc(CN2CCC3(CCc4c3n(C)c3ccccc43)CC2)c1` [1,4-Dihydro-1'-(3-methoxyphenyl)methyl-4-methylspiro[cyclopent[b]indole-3(2H), 4'piperidine]], half-maximal inhibition on monoamine oxidase-A (IC50) required 51.2 µM.

For `COc1ccc(CN2CCC3(CCc4c3n(C)c3ccccc43)CC2)cc1` [1,4-Dihydro-1'-(4-methoxyphenyl)methyl-4-methylspiro[cyclopent[b]indole-3(2H), 4'-piperidine]], the IC50 is 98.6 µM against monoamine oxidase-A, 125 µM at monoamine oxidase-B and 65.2 µM at acetylcholinesterase.

Take `CNC(=O)Oc1ccc2c(c1)c1c(n2C)C2(CC1)CCN(Cc1ccccc1)CC2` [1,4-Dihydro-4-methyl-7-methylaminocarbonyloxy-1'-phenylmethylspiro[cyclopent[b]indole-3(2H), 4'-piperidine]]: the IC50 at acetylcholinesterase came out at 10.5 µM.

For the compound `COc1cc(Br)c2oc(C3CCNCC3)cc2c1` [brofaromine, reference compound], the IC50 at monoamine oxidase-A was 0.18 µM.
